# Measurements taken from patent US11986485B1, “Compositions and methods for treating epilepsy” (POVIVA CORP, priority 2023, dated 2024).
# Entries after “also recorded” stand apart in the source; their conditions may differ.
# Assay: Hepatic markers (ALT, AST, ALP, GGT, total bilirubin) during 5-week administration
# Format: in vivo, humans
# Method: The study protocol was registered at the ClinicalTrials.gov (accessed on 7 Apr. 2022) (NCT05346562). […] Following a two-week washout, participants then repeated testing for another five weeks under different conditions. Participants visited the laboratory on 6 occasions in total (3 in each study arm), each time following an overnight fast. The complete course of the study was performed at the Department for Integrative Physiology, University of Split School of Medicine, Split, Croatia. The study design, implementation, and reporting followed the CONSORT guidelines, including the 25-item checklist and a flow diagram. The study was conducted according to the guidelines of the Declaration of Helsinki and was approved by the Ethics Committee of University of Split School of Medicine on 15 Dec. 2021 (Class: 003-08/21-03/0003; Reg. No.: 2181-198-03-04-21-0091). Prior to enrollment in the study, every participant was informed about the procedures, course, and purpose of the research and each of them individually signed an informed written consent.
# Each patient visited the laboratory 6 times in total. During each visit, a sample of venous blood was taken from forearm following an overnight fast and sample of urine was obtained. All blood and urine samples were analyzed in the same certified institutional biochemical laboratory, using the standard operating procedures.
# Hepatic (ALT, AST, ALP, GGT, and total bilirubin) markers were also measured.
# Moreover, these changes we<1 standard deviation and therefore viewed as not clinically meaningful. As noted earlier, >3SD over normative values were classified as an AE.
# [1] = 5 weeks administration, versus placebo
# [2] = 5 weeks administration, versus placebo, listed as CBD
compound,measurement,setting,value
"C=C(C)[C@@H]1CCC(C)=C[C@H]1c1c(O)cc(CCCCC)cc1O [Cannabidiol, 2-[(1R,6R)-6-Isopropenyl-3-methylcyclohex-2-en-1-yl]-5-pentylbenzene-1,3-diol]",plasma alanine transaminase (ALT),[1],remained effectively unchanged over time
same,plasma alkaline phosphatase (ALP),[1],remained effectively unchanged over time
same,plasma total bilirubin,[1],remained effectively unchanged over time
same,plasma aspartate transaminase (AST),[2],higher in the placebo condition; also recorded: remained effectively unchanged over time
same,plasma gamma-glutamyl transferase (GGT),[2],slightly higher; also recorded: remained effectively unchanged over time
same,size of GGT and AST changes,viewed as not clinically meaningful,< 1 standard deviation
